The text below walks through data of patent publication US10080752B2, “Treatment of brain and central nervous system tumors” (KADMON CORPORATION LLC, priority 2014, dated 2018).

For data set [1] the following is noted: comparator in FIG. 1, 100 mg/kg oral gavage in mice; cited from earlier work.
Data set [2] in a line: Penetration of the blood-brain barrier: plasma and brain concentrations after a single oral dose. The format is in vivo, Male CD-1 mice. The following applies: mice, single dose 100 mg/kg oral gavage. The procedure:
The compound of Formula I was tested to determine bioavalability in tissues of the brain and CNS.
Male CD-1 mice (N=3/group) received a single dose of lapatinib or the compound of Formula I at 100 mg/kg via oral gavage. Animals were not food fasted prior to dosing. Dose volumes were calculated based on the animals' body weights measured before the study.
Plasma and tissue samples were collected 1, 4, 8 and 24 hours post dose (4 time-points/group, and 3 animals/time-point). Whole blood samples were collected into a Na heparin containing tube. Within 30 minutes of collection, the samples were centrifuged at approximately 3,000×g for 10 minutes at 2 to 8° C. to obtain plasma. The plasma samples were divided into 2 aliquots by transferring into 2 cryogenic vials and stored in a freezer at −75±15° C. prior to analysis. Tissues were collected after the blood was collected. Tissues (brain, liver and kidneys) were washed with ice-cold PBS, and the weight was measured and recorded. Each tissue was transferred into a glass vial and stored in a freezer at −75±15° C. prior to sample analysis.

Data set [3] is described as follows: Penetration of the blood-brain barrier by quantitative whole body autoradiography. The class given is in vivo, Lister Hooded partially pigmented male rats. As to conditions: rats. The protocol: The compound of Formula 1 was tested to determine bio-distribution in tissues of the brain and CNS.
Lister Hooded partially pigmented male rats (N=1 rat per time point) received a single dose of the compound of Formula 1 at 30 mg/kg body weight (^14C labeled, 3.7 MBq/kg body weight) via oral gavage. Animals were not fasted prior to dosing.
Six rats (age 8-10 weeks old) were administered a single oral dose of [^14C]-labeled Formula 1; total dose of 30 mg/kg and a total radioactivity dose of 3.7 MBq/kg (100 μCi/kg). One rat/time point was euthanized by CO2 overdose at each of the following times after dose administration: 1, 6, 24, 72, 120 and 168 hours, followed by immediate snap freezing in hexane/solid CO2, subsequent freezing at −20° C., followed by whole-body autoradiography.

The subject of data set [4] is GL261-luc2 luciferase expressing cells. Kind of data set: Efficacy alone or in combination with irradiation in an intracranial glioma model in mice. The format is in vivo, C57BL/6 albino female mice. As to conditions: 70 mg/kg once daily, 5 days on/2 days off, oral gavage, FIG. 2. The procedure:
The compound of Formula 1 was tested to determine antitumor effects when tumors are growing in the brain. GL261-luc2 luciferase expressing cells were implanted intracranially (2 mm right lateral and 1 mm anterior from Bregma, 2-3 mm down from burr hole) into C57BL/6 albino female mice (N=14 per treatment group). Beginning 8 days after cell injection, mice received vehicle or the compound of Formula I at 70 mg/kg body weight (once daily, 5 days on/2 days off schedule) via oral gavage, with or without head-only irradiation (once daily for 5 days). Tumor burden in the brain was evaluated utilizing bioluminescence.

For `CS(=O)(=O)CCNCc1ccc(-c2ccc3ncnc(Nc4ccc(OCc5cccc(F)c5)c(Cl)c4)c3c2)o1` [lapatinib], in data set [1], the “Crossing of the blood-brain barrier (comparator, as stated in legend of FIG. 1)” value is on record as “does not cross the blood-brain barrier”.
For the compound `COc1cc2c(Nc3ccc(Cl)c(Cl)c3F)ncnc2cc1OCC1C[C@@H]2CN(C)C[C@@H]2C1` (stereo partly drawn) [Formula 1, N-(3,4-dichloro-2-fluorophenyl)-7-({[(3aR,6aS)-2-methyloctahydrocyclopenta[c]pyrrol-5-yl]methyl}oxy)-6-(methyloxy)quinazolin-4-amine], the “Concentration observed in CNS tissue compared with blood” value in data set [2] (FIG. 1) is “substantially higher”. In addition, the “Time for which the CNS tissue concentration remained higher than in blood” value in data set [2] (duration of the assay) is listed as “at least 24 hours”. Further, the “Crossing of the blood brain barrier / concentrations in CNS and brain tissue” value in data set [2] (samples 1, 4, 8 and 24 hours post dose, FIG. 1) was “crossed the blood brain barrier and attained high concentrations in CNS and brain tissue”. For the same compound, the “Concentrations of radioactivity in brain compared with blood” value in data set [3] (single oral dose 30 mg/kg 14C labeled (3.7 MBq/kg), at 6 and 24 hours after dosing) is “comparable to that in blood”. In data set [3] (single oral dose 30 mg/kg 14C labeled, whole-body autoradiography), the “Penetration of the blood brain barrier” value is reported as “good penetration of the blood brain barrier”. In data set [4] (from 8 days after cell injection, alone), the “Growth of glioma tumors in the brain (tumor burden by bioluminescence)” value is on record as “reduced the growth of glioma tumors in the brain”. Besides, in data set [4] (with head-only irradiation once daily for 5 days), the “Anti-tumor effects of irradiation on tumors in the brain (tumor burden by bioluminescence)” value is on record as “increased the anti-tumor effects of irradiation on tumors in the brain”.
